Test results: patent US8071611B2, “Spirocyclic heterocyclic derivatives and methods of their use” (Adolor Corporation, priority 2003, dated 2011)
Structures can show the parent of a compound that is named as a salt. Where two headings read alike, the source gives them in different places.

Legend:
[1] = molecular target: T1, cloned human κ opioid receptor (Homo sapiens, UniProt P41145); test: Receptor binding: inhibition of [3H]diprenorphine binding to cloned human κ opioid receptor; conditions: for inhibition at 10 µM: read-out: % Inhibition at 10 μM (κ); for % Inhibition at 10 μM (κ): [3H]diprenorphine binding
T1 construct: expressed in transfected cells; host or cells: CHO cells (membranes)
Protocol: (§1) IC50 values were obtained by nonlinear analysis of the data using GraphPad Prism version 3.00 for Windows (GraphPad Software, San Diego). Ki values were obtained by Cheng-Prusoff corrections of IC50 values.
(§2) After dilution in buffer A and homogenization as before, membrane proteins (10-80 μg) in 250 μL were added to mixtures containing test compound and [^3H]diprenorphine (0.5 to 1.0 nM, 40,000 to 50,000 dpm) in 250 μL of buffer A in 96-well deep-well polystyrene titer plates (Beckman). After incubation at room temperature for one hour, the samples were filtered through GF/B filters that had been presoaked in a solution of 0.5% (w/v) polyethylenimine and 0.1% (w/v) bovine serum albumin in water. The filters were rinsed 4 times with 1 mL of cold 50 mM Tris HCl, pH 7.8 and radioactivity remaining on the filters determined by scintillation spectroscopy. Nonspecific binding was determined by the minimum values of the titration curves and was confirmed by separate assay wells containing 10 μM naloxone.
(§3) To determine the equilibrium dissociation constant for the inhibitors (Ki), radioligand bound (cpm) in the presence of various concentrations of test compounds was measured. The concentration to give half-maximal inhibition (EC50) of radioligand binding was determined from a best nonlinear regression fit to the following equation,
(§4) The nonlinear regression fit was performed using the program Prism® (GraphPad Software, San Diego, Calif.). The Ki values were then determined from the EC50 values by the following equation,
(§5) [formula] where [ligand] is the concentration of radioligand and Kd is the equilibrium dissociation constant for the radioligand.
as §1
(§6) [formula] where [ligand] is the concentration of radioligand and Kd is the equilibrium dissociation constant for the radioligand. Receptor-Mediated [^35S]GTP[…]S Binding

[2] = test system: forced swim behaviour in rats; test: Forced swim assay; type: in vivo, Male Sprague-Dawley rats; conditions: percent change ±SEM relative to vehicle-treated rats
From the text: Male Sprague-Dawley rats (approximately 200 g) are placed in a tank of room temperature water for a fifteen min practice swim. Every five sec during the first five min of the practice swim, the rats are rated as immobile (floating with motion needed to keep head above the water), swimming (movement across the swim), or climbing (actively trying to climb out of the tank of water, upward directed movements of the forepaws). The percentage of time the rats spent in each of these responses is calculated.
Approximately 24 h after the practice swim, the rats are treated with vehicle or test compound and placed in the tank for a 5 min swim. As was the case with the practice swim, the rats are rated as immobile, swimming, or climbing during the test swim and the percentage of time spent in each of these responses is calculated. The data is analyzed by one-way ANOVA with post-hoc analysis to compare the behavioral response after vehicle treatment to the behavioral response after drug treatment for each of the three behavioral responses. The level of significance is set at p<0.05.

[3] = molecular target: T2, cloned human μ opioid receptor (Homo sapiens, UniProt P35372); test: Receptor binding: inhibition of [3H]diprenorphine binding to cloned human μ opioid receptor; conditions: for % Inhibition at 10 μM (μ): [3H]diprenorphine binding, cloned human μ opioid receptor; for inhibition at 10 µM: read-out: % Inhibition at 10 μM (μ)
T2 construct: expressed in transfected cells; host or cells: CHO cells (membranes)
Protocol: as §1, §2, §3, §4, §5, §1, §6

[4] = test system: acetic acid-induced writhing in mice; test: Acetic acid-induced writhing; type: in vivo, Male ICR mice; conditions: 30 mg/kg (s.c.)
Protocol: Male ICR mice weighing 20-25 g are injected s.c. with either vehicle or test compound 15 min before they are injected intraperitoneally with 0.6% acetic acid. […] treatment with acetic acid, the number of writhes is counted for 10 minutes. Dose response curves are expressed as the percent inhibition of acetic acid induced writhing, when compared to the mean number of writhes observed in the vehicle-treated mice. The mean percent inhibition (% I) of acetic acid-induced writhing for drug-treated mice is calculated according to the following formula: […]
The mean individual response is the mean number of writhes in mice treated with test compound. The mean vehicle response is the mean number of writhes in mice treated with vehicle.
Male ICR mice weighing 20-25 g are injected s.c. with either vehicle or test compound 15 minutes before they are injected intraperitoneally with 0.6% acetic acid. At 5 minutes after treatment with acetic acid, the number of writhes is counted for 10 minutes. Dose response curves are expressed as the percent inhibition of acetic acid induced writhing, when compared to the mean number of writhes observed in the vehicle-treated mice. The mean percent inhibition (% I) of acetic acid-induced writhing for drug-treated mice is calculated according to the following formula:
[formula] […]

[5] = test system: FCA-induced hyperalgesia in rats; test: Freunds Complete Adjuvant (FCA)-induced hyperalgesia, paw pressure thresholds; type: in vivo
Protocol: Rats were injected intraplantar with FCA and 24 h later treated with tested compounds administered orally. Paw Pressure Thresholds (PPT) was assessed 30, 60, 120, and 240 minutes after drug treatment.

[6] = test system: castor oil-induced diarrhea in mice; test: Castor oil-induced diarrhea; type: in vivo; conditions: Mus musculus, sc, read-out: ED50 (incidence of castor oil-induced diarrhea)
Protocol: Mice were fasted overnight with water ad libitum. Mice were weighed, dosed orally with 0.6 mL of castor oil and placed in individual cubicles (11 cm×10 cm) lined with a pre-weighed sheet of absorbent paper. Thirty min after receiving castor oil, mice were injected s.c with tested compound. Seventy-five min after dosing with castor oil, the mice and absorbent paper were reweighed and the number of mice with diarrhea (defined as wet, unformed stool) was determined.
Percent inhibition by tested compounds in castor oil-induced diarrhea assay was determined by the following formula: […]

[7] = molecular target: T3, cloned human δ opioid receptor (Homo sapiens, UniProt P41143); test: Receptor binding: inhibition of [3H]diprenorphine binding to cloned human δ opioid receptor
T3 construct: expressed in transfected cells; host or cells: CHO cells (membranes)
Protocol: as §1, §2, §3, §4, §5, §1, §6

[8] = molecular target: T3, cloned human δ opioid receptor; test: Receptor-mediated [35S]GTPγS binding, membranes containing cloned human δ opioid receptors; type: biochemical; conditions: agonist stimulation of [35S]GTPγS binding
Protocol: (§7) Assays are carried out in 96-well FlashPlates® (Perkin Elmer Life Sciences, Inc, Boston, Mass.). Membranes prepared from CHO cells expressing the appropriate receptor (50-100 μg of protein) are added to assay mixtures containing agonist with or without antagonists, 100 μM [^35S]GTPγS (approx. 100,000 dpm), 3.0 μM GDP, 75 mM NaCl, 15 mM MgCl2, 1.0 mM ethylene glycol-bis(β-aminoethyl ether)-N,N,N′,N′-tetracetic acid, 1.1 mM dithiothreitol, 10 μg/mL leupeptin, 10 μg/mL pepstatin A, 200 μg/mL bacitracin, and 0.5 μg/mL aprotinin in 50 mM Tris-HCl buffer, pH 7.8. After incubation at room temperature for one hour, the plates are sealed, centrifuged at 800×g in a swinging bucket rotor for 5 min and bound radioactivity determined with a TopCount microplate scintillation counter (Packard Instrument Co., Meriden, Conn.).
as §7, with “pM [^35S]GTP[…]S” for “μM [^35S]GTPγS”

[9] = [3H]diprenorphine displacement, cloned human δ opioid receptor, read-out: Ki(δ)

T2 sequence (P35372 whole entry): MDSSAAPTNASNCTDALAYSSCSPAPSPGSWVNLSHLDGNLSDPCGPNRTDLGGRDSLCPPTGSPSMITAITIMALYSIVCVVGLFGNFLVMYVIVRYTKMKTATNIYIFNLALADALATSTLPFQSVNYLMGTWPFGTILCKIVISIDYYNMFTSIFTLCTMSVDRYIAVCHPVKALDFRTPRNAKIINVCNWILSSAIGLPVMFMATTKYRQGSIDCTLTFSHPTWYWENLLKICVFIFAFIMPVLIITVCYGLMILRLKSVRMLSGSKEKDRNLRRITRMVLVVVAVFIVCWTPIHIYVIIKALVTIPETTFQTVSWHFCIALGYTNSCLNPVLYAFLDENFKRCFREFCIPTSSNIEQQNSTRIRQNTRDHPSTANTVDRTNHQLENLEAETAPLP
T1 sequence (P41145 whole entry): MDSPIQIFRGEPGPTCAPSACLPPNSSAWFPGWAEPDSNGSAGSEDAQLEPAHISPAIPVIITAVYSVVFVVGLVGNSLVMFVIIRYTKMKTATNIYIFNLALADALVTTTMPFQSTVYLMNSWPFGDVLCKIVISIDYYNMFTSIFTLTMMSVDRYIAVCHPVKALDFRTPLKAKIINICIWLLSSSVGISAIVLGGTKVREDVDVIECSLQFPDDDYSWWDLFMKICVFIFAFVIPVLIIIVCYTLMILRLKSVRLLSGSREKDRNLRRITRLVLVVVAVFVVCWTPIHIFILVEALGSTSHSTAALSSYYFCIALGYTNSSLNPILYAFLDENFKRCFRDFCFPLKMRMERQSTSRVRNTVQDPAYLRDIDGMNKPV
T3 sequence (P41143 whole entry): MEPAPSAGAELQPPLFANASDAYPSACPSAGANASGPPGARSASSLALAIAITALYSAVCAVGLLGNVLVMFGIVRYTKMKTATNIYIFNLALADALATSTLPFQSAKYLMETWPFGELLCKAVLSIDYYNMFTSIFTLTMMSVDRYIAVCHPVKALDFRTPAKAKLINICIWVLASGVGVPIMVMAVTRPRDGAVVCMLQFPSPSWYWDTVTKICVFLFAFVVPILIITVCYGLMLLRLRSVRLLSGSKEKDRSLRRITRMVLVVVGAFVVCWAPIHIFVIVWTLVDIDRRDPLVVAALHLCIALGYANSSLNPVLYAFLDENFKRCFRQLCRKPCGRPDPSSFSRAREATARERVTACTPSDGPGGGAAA

**Q.** For `CCN(CC)C(=O)c1ccc(C2=CC3(CCNCC3)Oc3ccccc32)cc1` [Example 1A], which Ki [1] is on record?
**A.** > 1000 nM

**Q.** And the “IMMOBILITY (% Decrease)” value ([2]; 3 mg/kg p.o.)?
**A.** 17 ± 10%

**Q.** And the “SWIMMING (% Increase)” value ([2]; 3 mg/kg p.o.)?
**A.** 37 ± 17%

**Q.** What about the “IMMOBILITY (% Decrease)” value ([2]; 30 mg/kg p.o.) of the same compound?
**A.** 43 ± 13 %

**Q.** What about the “SWIMMING (% Increase)” value ([2]; 30 mg/kg p.o.) of the same compound?
**A.** 137 ± 35 %

**Q.** And the Ki [3]?
**A.** 980 nM

**Q.** `CCN(CC)C(=O)c1ccc(C2=CC3(CCNCC3)Oc3ccccc32)cc1` [Example Z1, 4-[(4-N,N-diethylaminocarbonyl)phenyl]-spiro[2H,1-benzopyran-2,4′-piperidine]hydrochloride] was tested. Which inhibition at 10 µM [1] did it give?
**A.** 32%

**Q.** And the “inhibition of acetic acid-induced writhing” value [4]?
**A.** 69%

**Q.** And the ED50 ([5]; Rattus norvegicus, po)?
**A.** 2.5 mg/kg

**Q.** What about the “increase of Paw Pressure Thresholds (PPT) in the inflamed paw” value ([5]; inflamed paw, 1-2 h after oral administration) of the same compound?
**A.** 170-180%

**Q.** And the ED50 [6]?
**A.** 8.7 mg/kg

**Q.** Which results are given for `CCN(CC)C(=O)c1ccc(C2=CC3(CCNCC3)Oc3ccc(F)cc32)cc1` [Example Z2, 4-[(4-N,N-diethylaminocarbonyl)phenyl]-6-fluoro-spiro[2H,1-benzopyran-2,4′-piperidine]hydrochloride]?
**A.** Ki [7]: 2.6 nM; inhibition at 10 µM [1]: 17%; Ki [3]: 4500 nM; EC50 [8]: 70 nM

**Q.** Which Ki [7, 9] does the source give for `CCN(CC)C(=O)c1ccc(C2=CC3(CCNCC3)Oc3ccc(O)cc32)cc1.Cl` [Example Z3, 4-[(4-N,N-diethylaminocarbonyl)phenyl]-6-hydroxyspiro[2H,1-benzopyran-2,4′-piperidine]hydrochloride] here?
**A.** 0.36 nM

**Q.** What about the Ki ([1]; [3H]diprenorphine displacement, cloned human κ opioid receptor, read-out: Ki(κ)) of the same compound?
**A.** 790 nM

**Q.** What about the “% Inhibition at 10 μM (μ)” value [3] of the same compound?
**A.** 50%

**Q.** And the EC50 [8]?
**A.** 1.4 nM

**Q.** With `CCN(CC)C(=O)c1ccc(C2CC3(CCNCC3)Oc3ccccc32)cc1.Cl` (centres unmarked) [Example Z4, 4-[(4-N,N-diethylaminocarbonyl)phenyl]-3,4-dihydrospiro[2H,1-benzopyran-2,4′-piperidine]hydrochloride] as the compound, how does the “% Inhibition at 10 μM (κ)” value ([1]; cloned human κ opioid receptor) read?
**A.** 19%

**Q.** And the “% Inhibition at 10 μM (μ)” value [3]?
**A.** 34%

**Q.** Which results are given for `CCN(CC)C(=O)c1ccc(C2=CC3(CCN(C)CC3)Oc3ccccc32)cc1` [Example Z5, 4-[(4-N,N-diethylaminocarbonyl)phenyl]-N-methyl-spiro[2H,1-benzopyran-2,4′-piperidine]hydrochloride]?
**A.** Ki [7]: 5.8 nM; inhibition at 10 µM [1]: 23%; inhibition at 10 µM [3]: 17%; EC50 [8]: 140 nM

**Q.** `CCCN(CC1CC1)C(=O)c1ccc(C2=CC3(CCNCC3)Oc3ccccc32)cc1` [Example Z7, 4-[(4-N-propyl-N-cyclopropylmethylaminocarbonyl)phenyl]-spiro[2H,1-benzopyran-2,4′-piperidine]hydrochloride] was tested. Which Ki [7] did it give?
**A.** 1.7 nM

**Q.** And the inhibition at 10 µM [1]?
**A.** 51%

**Q.** What about the Ki [3] of the same compound?
**A.** 2500 nM

**Q.** What about the EC50 [8] of the same compound?
**A.** 29 nM

**Q.** Which results are given for `O=C(O)C1CCN(C(=O)c2ccc(C3=CC4(CCNCC4)Oc4ccccc43)cc2)CC1` [Example Z9, 4-[4-(4-carboxypiperidineaminocarbonyl)phenyl]-spiro[2H,1-benzopyran-2,4′-piperidine]hydrochloride]?
**A.** Ki [7]: 15 nM; inhibition at 10 µM [1]: 24%; inhibition at 10 µM [3]: 17%; EC50 [8]: 160 nM

**Q.** `C1=C(c2ccc(-c3nn[nH]n3)cc2)c2ccccc2OC12CCNCC2.O=C(O)C(F)(F)F` [Example Z10, 4-[4-(2H-tetrazolyl)phenyl]-spiro[2H,1-benzopyran-2,4′-piperidine]trifluoroacetic acid salt] was tested. Which Ki [7, 9] did it give?
**A.** 2.7 nM

**Q.** And the “% Inhibition at 10 μM (κ)” value ([1]; cloned human κ opioid receptor)?
**A.** 1.3%

**Q.** And the “% Inhibition at 10 μM (μ)” value [3]?
**A.** 29%

**Q.** What about the EC50 [8] of the same compound?
**A.** 22 nM

**Q.** With `O=C(O)CCCn1nnc(-c2ccc(C3=CC4(CCNCC4)Oc4ccccc43)cc2)n1` [Example Z11, 4-[4-(4-carboxypropyl-tetrazol-2-yl)phenyl]-spiro[2H,1-benzopyran-2,4′-piperidine]] as the compound, how does the Ki [7] read?
**A.** 8 nM

**Q.** What about the inhibition at 10 µM [1] of the same compound?
**A.** -3.3%

**Q.** What about the inhibition at 10 µM [3] of the same compound?
**A.** 3.7%

**Q.** And the EC50 [8]?
**A.** 140 nM

**Q.** What does the source list for `C1=C(c2cccnc2)c2ccccc2OC12CCNCC2` [Example Z12, 4-(3-pyridyl)-spiro[2H,1-benzopyran-2,4′-piperidine]hydrochloride]?
**A.** Ki [7]: 54 nM; inhibition at 10 µM [1]: 44%; inhibition at 10 µM [3]: 36%

**Q.** Which results are given for `CS(=O)(=O)c1ccc(C2=CC3(CCNCC3)Oc3ccccc32)cc1` [Example Z13, 4-[4-(methanesulfonyl)-phenyl]-spiro[2H,1-benzopyran-2,4′-piperidine]hydrochloride]?
**A.** Ki [7]: 28 nM; inhibition at 10 µM [1]: 17%; inhibition at 10 µM [3]: 41%

**Q.** For `CCN(CC)C(=O)c1ccc(C2=CC3(CC4CCC(C3)N4)Oc3ccccc32)cc1` (centres unmarked) [Example Z14, 4-[(4-N,N-diethylaminocarbonyl)phenyl]spiro[2H,1-benzopyran-2,4′-nortropine]hydrochloride], which Ki [7] is on record?
**A.** 26 nM

**Q.** And the inhibition at 10 µM [1]?
**A.** 8%

**Q.** And the inhibition at 10 µM [3]?
**A.** 24%
